According to patent publication US20240409609A1, “REVERSIBLE LYSINE COVALENT MODIFIERS OF EGFR AND USES THEREOF” (Terremoto Biosciences, Inc., priority 2021, published 2024):

Assays:
EGFR WT in Ba/F3 cells = EGFR WT in Ba/F3 cells (Homo sapiens (Human), UniProt P00533); assay: Ba/F3 pEGFR assay (AlphaLISA p-EGFR Tyr1068); type: cell-based; details: 2 hrs treatment, media supplemented with EGF
Protocol: Cellular activity was determined using the Ba/F3 system for studying oncogenic mutant kinases (Warmuth 2007). […] Transduced cells were maintained in RPMI 1640 with 10% FBS. EGFR WT transduced cells were grown in media supplemented with EGF. To assay cellular activity of inhibitors, cells were treated with inhibitor from 1000X DMSO stock dilutions and incubated for 2 hrs at 37° C. 5% CO2. Subsequently, p-EGFR (Tyr1068) was quantified using a commercial sandwich immunoassay (PerkinElmer AlphaLISA SureFire assay; ALSU-PEGFR) according to the manufacturer's instructions. […] Curr Opin Oncol 19, 55-60 (2007), which is incorporated herein in its entirety.

EGFR WT = EGFR WT (Homo sapiens (Human), UniProt P00533); assay: EGFR biochemical assay (AssayQuant chelation-enhanced fluorescence); details: 30 min preincubation, reaction time 360 min
Sequence of EGFR WT (P00533 668-1210): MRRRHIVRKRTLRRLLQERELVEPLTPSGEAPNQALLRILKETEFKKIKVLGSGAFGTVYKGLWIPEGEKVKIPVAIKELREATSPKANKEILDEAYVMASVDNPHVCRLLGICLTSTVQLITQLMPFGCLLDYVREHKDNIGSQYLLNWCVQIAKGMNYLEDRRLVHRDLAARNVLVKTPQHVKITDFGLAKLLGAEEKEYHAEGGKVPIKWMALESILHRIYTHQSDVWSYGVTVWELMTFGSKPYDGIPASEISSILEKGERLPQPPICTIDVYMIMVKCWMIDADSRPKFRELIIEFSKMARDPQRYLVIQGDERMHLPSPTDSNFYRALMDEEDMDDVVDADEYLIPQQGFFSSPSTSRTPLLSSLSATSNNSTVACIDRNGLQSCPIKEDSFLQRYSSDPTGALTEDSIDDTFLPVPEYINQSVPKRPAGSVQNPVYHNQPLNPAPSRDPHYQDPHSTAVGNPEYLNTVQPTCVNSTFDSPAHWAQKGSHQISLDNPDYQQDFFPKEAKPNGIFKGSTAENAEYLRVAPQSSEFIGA

Sequence of EGFR WT in Ba/F3 cells (P00533 25-1210): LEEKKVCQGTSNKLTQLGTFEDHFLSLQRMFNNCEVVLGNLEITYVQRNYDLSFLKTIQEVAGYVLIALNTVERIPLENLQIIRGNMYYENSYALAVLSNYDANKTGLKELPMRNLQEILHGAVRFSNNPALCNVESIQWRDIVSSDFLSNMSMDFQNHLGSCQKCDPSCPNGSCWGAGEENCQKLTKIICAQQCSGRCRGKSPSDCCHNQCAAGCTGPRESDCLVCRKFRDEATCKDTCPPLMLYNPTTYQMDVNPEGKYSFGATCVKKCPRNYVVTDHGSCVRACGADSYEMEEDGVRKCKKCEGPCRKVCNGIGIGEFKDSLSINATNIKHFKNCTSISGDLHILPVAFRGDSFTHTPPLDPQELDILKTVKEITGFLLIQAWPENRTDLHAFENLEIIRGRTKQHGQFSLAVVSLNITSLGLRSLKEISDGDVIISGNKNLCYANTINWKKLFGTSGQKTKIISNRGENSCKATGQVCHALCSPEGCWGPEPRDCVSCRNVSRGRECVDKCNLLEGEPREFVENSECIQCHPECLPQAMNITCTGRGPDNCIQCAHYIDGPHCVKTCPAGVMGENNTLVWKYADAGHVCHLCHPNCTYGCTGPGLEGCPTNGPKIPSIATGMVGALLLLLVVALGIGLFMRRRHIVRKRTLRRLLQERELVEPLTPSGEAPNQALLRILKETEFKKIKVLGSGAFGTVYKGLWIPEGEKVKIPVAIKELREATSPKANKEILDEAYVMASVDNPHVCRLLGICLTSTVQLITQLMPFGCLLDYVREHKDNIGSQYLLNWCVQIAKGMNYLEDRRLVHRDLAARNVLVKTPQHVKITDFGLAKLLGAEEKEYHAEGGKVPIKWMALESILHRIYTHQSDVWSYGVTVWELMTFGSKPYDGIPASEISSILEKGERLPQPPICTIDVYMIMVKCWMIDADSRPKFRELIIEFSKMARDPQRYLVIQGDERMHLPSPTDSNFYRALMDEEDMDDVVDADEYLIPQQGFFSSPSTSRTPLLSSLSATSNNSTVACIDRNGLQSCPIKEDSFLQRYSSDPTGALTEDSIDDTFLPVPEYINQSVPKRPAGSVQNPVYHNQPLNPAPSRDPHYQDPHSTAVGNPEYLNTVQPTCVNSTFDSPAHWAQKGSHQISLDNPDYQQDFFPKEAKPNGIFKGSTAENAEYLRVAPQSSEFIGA

Row | SMILES | IC50 (EGFR WT in Ba/F3 cells) [nM] | IC50 (EGFR WT) [nM]
1 | COc1cc(N(C)CCN(C)C)c(NC(C)=O)cc1Nc1nccc(-c2cn(Cc3cccc(O)c3C=O)c3ccccc23)n1 [Compound 28] | > 10000 | > 1000
2 | COc1cc(N2CCC(N3CCN(C)CC3)CC2)ccc1Nc1ncc(-c2ccc(O)c(C=O)c2)c(-c2ccccc2)n1 [Compound 22] |  | 211
3 | CC(C)c1ccc(N2CC(CS(C)(=O)=O)C2)c2cnc(Nc3ccnc(N(C)CCc4cccc(O)c4C=O)n3)cc12 [Compound 45] | > 10000 | > 1000
4 | CN1CCN(Cc2ccc3[nH]/c(=N\C(=O)c4ccnc(C#Cc5cncc(O)c5C=O)c4)n(CC(C)(C)O)c3c2)CC1 [Compound 100] | > 10000 | 74.3
5 | COc1cc(N(C)CCN(C)C)ccc1Nc1ncc(Cl)c(-c2cn(Cc3cccc(C=O)c3O)c3ccccc23)n1 [Compound 31] |  | > 1000
6 | COc1cc(N2CCC(N3CCN(C)CC3)CC2)ccc1Nc1ncc(Cl)c(Nc2ccccc2-c2c(OC)ccc(C=O)c2O)n1 [Compound 34] |  | 278
7 | COc1cc(N(C)CCN(C)C)ccc1Nc1ncc(Cl)c(-c2cn(Cc3cccc(O)c3C=O)c3ccccc23)n1 [Compound 32] |  | 526
8 | COc1cc(N2CCC(N3CCN(C)CC3)CC2)ccc1Nc1ncc(-c2ccc(O)c(C=O)c2)c(Nc2ccccc2P(C)(C)=O)n1 [Compound 27] |  | > 1000
9 | CC(=O)Nc1cccc(C#Cc2cc(C(=O)/N=c3\[nH]c4ccc(CN5CCN(C)CC5)cc4n3CC(C)(C)O)cc(C)n2)c1C=O [Compound 97] | 7950 | 115
10 | COc1cc(N2CCC(N3CCN(C)CC3)CC2)ccc1Nc1ncc(-c2ccc(C=O)c(O)c2)c(Nc2ccccc2)n1 [Compound 4] | > 10000 | > 1000
11 | CN(C)C/C=C/C(=O)N1CCCC[C@@H](n2c(NC(=O)c3ccnc(-n4cc(-c5cccc(O)c5C=O)cn4)c3)nc3cccc(Cl)c32)C1 [Compound 125] | 4900 | 29.4
12 | COc1cc(N2CCC(N3CCN(C)CC3)CC2)ccc1Nc1ncc(-c2cc(C=O)c(O)cc2OC)c(Nc2ccccc2)n1 [Compound 13] | > 10000 | 94
13 | COc1cc(N2CCC(N3CCN(C)CC3)CC2)ccc1Nc1ncc(C#Cc2cccc(C=O)c2O)c(Nc2ccccc2)n1 [Compound 16] |  | 36.4
14 | CC(C)c1ccc(N2CC(CS(C)(=O)=O)C2)c2cnc(Nc3ccnc(-c4cccc(C=O)c4O)n3)cc12 [Compound 50] |  | > 1000
15 | CC(C)c1ccc(N2CC(CS(C)(=O)=O)C2)c2cnc(Nc3ccnc(Oc4cccc(O)c4C=O)n3)cc12 [Compound 48] | > 10000 | > 1000
16 | COc1cc(N(C)CCN(C)C)c(NC(C)=O)cc1Nc1nccc(-c2cn(Cc3ccc(O)c(C=O)c3)c3ccccc23)n1 [Compound 30] |  | 255
17 | Cc1cc(C(=O)/N=c2\[nH]c3ccc(CN4CCN(C)CC4)cc3n2CC(C)(C)O)cc(-n2cc(-c3cccc(O)c3C=O)cn2)n1 [Compound 102] | > 10000 | 348
18 | COc1cc(N2CCC(N3CCN(C)CC3)CC2)ccc1Nc1ncc(-c2ccc(O)c(C=O)c2)c(Oc2ccccc2)n1 [Compound 21] |  | 271
19 | COc1cc(N2CCC(N3CCN(C)CC3)CC2)ccc1Nc1ncc(Cl)c(Nc2cccc(-c3cccc(O)c3C=O)c2)n1 [Compound 26] |  | 872
20 | COc1cc(N2CCC(N3CCN(C)CC3)CC2)ccc1Nc1ncc(Cl)c(Nc2ccc(NCc3ccc(C=O)c(O)c3)cc2)n1 [Compound 33] |  | 76.5
21 | COc1cc(N2CCC(N3CCN(C)CC3)CC2)ccc1Nc1ncc(Cl)c(Nc2cccc(-c3cccc(C=O)c3O)c2)n1 [Compound 25] |  | 87.5
22 | CC(C)c1ccc(N2CC(CS(C)(=O)=O)C2)c2cnc(Nc3ccnc(N(C)Cc4cccc(O)c4C=O)n3)cc12 [Compound 43] |  | > 1000
23 | CC(C)c1ccc(N2CC(CS(C)(=O)=O)C2)c2cnc(Nc3ccnc(-c4ccc(O)c(C=O)c4)n3)cc12 [Compound 47] |  | > 1000
24 | COc1cc(N2CCC(N3CCN(C)CC3)CC2)ccc1Nc1ncc(C#Cc2cccc(O)c2C=O)c(Nc2ccccc2)n1 [Compound 18] |  | 9.08
25 | COc1cc(N2CCC(N3CCN(C)CC3)CC2)ccc1Nc1ncc(C#Cc2ccc(O)c(C=O)c2)c(Nc2ccccc2)n1 [Compound 17] |  | 98.4
26 | CC(C)c1ccc(N2CC(CS(C)(=O)=O)C2)c2cnc(Nc3ccnc(C#Cc4cccc(O)c4C=O)n3)cc12 [Compound 41] |  | 22.2
27 | COc1cc(N2CCC(N3CCN(C)CC3)CC2)ccc1Nc1ncc(Cl)c(Oc2ccccc2-c2cccc(O)c2C=O)n1 [Compound 19] |  | > 1000
28 | COc1cc(N2CCC(N3CCN(C)CC3)CC2)ccc1Nc1ncc(-c2ccc(C=O)c(O)c2)c(Nc2ccccc2P(C)(C)=O)n1 [Compound 24] |  | 10.8
29 | CC(C)c1ccc(N2CC(CS(C)(=O)=O)C2)c2cnc(Nc3ccnc(-c4cccc(-c5cccc(O)c5C=O)c4)n3)cc12 [Compound 46] |  | > 1000

Now from value to compound:

Row | IC50 (EGFR WT in Ba/F3 cells) [nM] | IC50 (EGFR WT) [nM] | SMILES
30 | 6430 | 529 | CC(C)(O)Cn1/c(=N/C(=O)c2ccnc(-c3cccc(-c4cccc(O)c4C=O)c3)c2)[nH]c2ccccc21 [Compound 130]
31 | 5200 | 80.1 | CC(C)(O)Cn1/c(=N/C(=O)c2ccnc(CCc3cccc(O)c3C=O)c2)[nH]c2ccccc21 [Compound 135]
32 | 4770 | 10.9 | CC(C)(O)Cn1/c(=N/C(=O)c2ccnc(Oc3cccc(O)c3C=O)c2)[nH]c2ccc(CN3CCC(C(C)(C)O)CC3)cc21 [Compound 80]
33 | 763 | 278 | CN1CCN(c2ccc3[nH]/c(=N\C(=O)c4ccnc(Oc5cccc(O)c5C=O)c4)n(CC(C)(C)O)c3c2)CC1 [Compound 56]
34 | > 10000 | 221 | O=Cc1c(O)cccc1Oc1cc(C(=O)/N=c2\[nH]c3ccccc3n2CCN2CCOCC2)ccn1 [Compound 123]
35 | 267 | 42 | CN1CCN(Cc2ccc3[nH]/c(=N\C(=O)c4ccnc(C#Cc5cccc(NC(=O)C6CC6)c5C=O)c4)n(CC(C)(C)O)c3c2)CC1 [Compound 87]
36 | > 10000 | 7.8 | CN1CCN(Cc2ccc3[nH]/c(=N\C(=O)c4ccnc(C#Cc5ccc(F)c(O)c5C=O)c4)n(CC(C)(C)O)c3c2)CC1 [Compound 72]
37 | > 10000 | 344 | CN1CCN(Cc2ccc3[nH]/c(=N\C(=O)c4ccnc(N5CC(Oc6cccc(O)c6C=O)C5)c4)n(CC(C)(C)O)c3c2)CC1 [Compound 104]
38 | 2950 | 18.6 | CN1CCN(Cc2ccc3[nH]/c(=N\C(=O)c4ccnc(Oc5cc(F)cc(O)c5C=O)c4)n(CC(C)(C)O)c3c2)CC1 [Compound 66]
39 | > 10000 | 38.2 | CC(C)(O)Cn1/c(=N/C(=O)c2ccnc(C#Cc3cccc(O)c3C=O)c2)[nH]c2ccccc21 [Compound 127]
40 |  | 508 | CN1CCN(Cc2ccc3[nH]/c(=N\C(=O)c4ccnc(N(C)Cc5cccc(O)c5C=O)c4)n(CC(C)(C)O)c3c2)CC1 [Compound 96]
41 | > 10000 | 444 | CN1CCN(Cc2ccc3[nH]/c(=N\C(=O)c4ccnc(-c5ccn(-c6cccc(O)c6C=O)n5)c4)n(CC(C)(C)O)c3c2)CC1 [Compound 94]
42 | > 10000 | > 1000 | CC(C)(O)Cn1/c(=N/C(=O)c2ccnc(Nc3cccc(C=O)c3O)c2)[nH]c2ccccc21 [Compound 134]
43 | 1830 | 148 | CC(=O)Nc1cccc(Oc2cc(C(=O)/N=c3\[nH]c4ccc(CN5CCN(C)CC5)cc4n3CC(C)(C)O)ccn2)c1C=O [Compound 98]
44 | > 10000 | > 1000 | CC(C)(O)Cn1/c(=N/C(=O)c2ccnc(N3CCN(c4cccc(O)c4C=O)CC3)c2)[nH]c2ccccc21 [Compound 131]
45 | 5260 | 8.24 | O=Cc1c(O)cccc1Oc1cc(C(=O)/N=c2\[nH]c3ccccc3n2[C@H]2CC[C@@H](O)CC2)ccn1 [Compound 122]
46 | 3360 | 7.05 | CN1CCN(Cc2ccc3[nH]/c(=N\C(=O)c4ccnc(C#Cc5cccc(O)c5C=O)c4)n(CC(C)(C)O)c3c2)CC1 [Compound 62]
47 | 9870 | > 1000 | CN1CCN(Cc2ccc3[nH]/c(=N\C(=O)c4ccnc(OCc5cccc(O)c5C=O)c4)n(CC(C)(C)O)c3c2)CC1 [Compound 112]
48 | > 10000 | 58.2 | CN1CCN(Cc2ccc3[nH]/c(=N\C(=O)c4ccnc(C#Cc5cccc(NS(C)(=O)=O)c5C=O)c4)n(CC(C)(C)O)c3c2)CC1 [Compound 69]
49 | > 10000 | 8.81 | CC(C)(O)Cn1/c(=N/C(=O)c2ccnc(C#Cc3cccc(O)c3C=O)c2)[nH]c2ccc(CN3CCOCC3)cc21 [Compound 78]
50 | > 9970 | 108 | CN1CCN(Cc2ccc3[nH]/c(=N\C(=O)c4ccnc(-c5cnn(-c6cccc(O)c6C=O)c5)c4)n(CC(C)(C)O)c3c2)CC1 [Compound 88]
51 | 4950 | 10.4 | CN1CCN(C(=O)c2ccc3[nH]/c(=N\C(=O)c4ccnc(Oc5cccc(O)c5C=O)c4)n(CC(C)(C)O)c3c2)CC1 [Compound 71]
52 | 1420 | 8.96 | CN1CCN(Cc2ccc3[nH]/c(=N\C(=O)c4ccnc(Oc5cccc(O)c5C=O)c4)n(CC(C)(C)O)c3c2)CC1 [Compound 64]
53 | > 10000 | 131 | CN1CCN(Cc2ccc3[nH]/c(=N\C(=O)c4ccnc(-n5ccc(-c6cccc(O)c6C=O)n5)c4)n(CC(C)(C)O)c3c2)CC1 [Compound 83]
54 | > 10000 | 280 | CN1CCN(Cc2ccc3[nH]/c(=N\C(=O)c4ccc(Oc5cccc(O)c5C=O)cc4)n(CC(C)(C)O)c3c2)CC1 [Compound 105]
55 |  | > 1000 | CC(C)(O)Cn1/c(=N/C(=O)c2ccnc(C#Cc3cccc(C=O)c3O)c2)[nH]c2ccccc21 [Compound 137]
